Experimental data: ChEMBL document CHEMBL1129998, “Pharmacological options in the treatment of benign prostatic hyperplasia” (J Med Chem, 1997)
pIC50, pKi: −log10 of the molar value.

Legend:
[1] = target: T1, Alpha-1A adrenergic receptor (Homo sapiens, UniProt P35348); experiment: Binding affinity was tested on human Alpha-1A adrenergic receptor
T1 sequence (P35348 whole entry): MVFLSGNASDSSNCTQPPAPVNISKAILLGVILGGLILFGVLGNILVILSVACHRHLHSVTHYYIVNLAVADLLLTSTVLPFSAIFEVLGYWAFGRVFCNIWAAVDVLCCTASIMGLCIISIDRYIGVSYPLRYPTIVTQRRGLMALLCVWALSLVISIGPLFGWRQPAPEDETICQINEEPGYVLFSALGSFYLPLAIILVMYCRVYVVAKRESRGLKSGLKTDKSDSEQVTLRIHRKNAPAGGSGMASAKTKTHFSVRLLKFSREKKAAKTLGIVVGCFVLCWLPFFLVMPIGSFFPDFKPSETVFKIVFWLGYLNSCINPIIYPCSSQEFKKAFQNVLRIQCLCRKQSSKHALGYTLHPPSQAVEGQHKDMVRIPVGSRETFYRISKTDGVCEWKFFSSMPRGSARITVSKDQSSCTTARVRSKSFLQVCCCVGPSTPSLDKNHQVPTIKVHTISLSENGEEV

[2] = target: T2, 3-oxo-5-alpha-steroid 4-dehydrogenase 2 (Homo sapiens, UniProt P31213); experiment: Inhibition of human 5-alpha reductase 2 isozyme.
T2 sequence (P31213 whole entry): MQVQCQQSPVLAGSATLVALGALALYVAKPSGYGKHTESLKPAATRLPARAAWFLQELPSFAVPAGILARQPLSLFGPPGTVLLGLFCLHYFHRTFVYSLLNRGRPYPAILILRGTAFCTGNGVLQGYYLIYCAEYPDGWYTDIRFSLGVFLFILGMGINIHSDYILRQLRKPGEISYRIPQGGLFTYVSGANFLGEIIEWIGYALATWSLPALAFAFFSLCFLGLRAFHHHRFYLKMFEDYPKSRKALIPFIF

[3] = target: T3, 3-oxo-5-alpha-steroid 4-dehydrogenase 1 (Homo sapiens, UniProt P18405); experiment: Inhibitory concentration was tested on human 5-alpha reductase 1 isozyme
T3 sequence (P18405 whole entry): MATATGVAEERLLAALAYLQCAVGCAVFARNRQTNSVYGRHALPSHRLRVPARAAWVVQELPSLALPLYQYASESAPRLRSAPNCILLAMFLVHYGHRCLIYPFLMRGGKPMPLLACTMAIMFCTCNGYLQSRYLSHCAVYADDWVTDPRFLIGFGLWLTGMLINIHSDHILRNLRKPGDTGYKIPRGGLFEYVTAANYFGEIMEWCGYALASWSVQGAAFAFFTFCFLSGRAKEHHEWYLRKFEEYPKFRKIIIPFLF

[4] = target: T4, Alpha-1B adrenergic receptor (Homo sapiens, UniProt P35368); experiment: Binding affinity was tested on human Alpha-1B adrenergic receptor
T4 sequence (P35368 whole entry): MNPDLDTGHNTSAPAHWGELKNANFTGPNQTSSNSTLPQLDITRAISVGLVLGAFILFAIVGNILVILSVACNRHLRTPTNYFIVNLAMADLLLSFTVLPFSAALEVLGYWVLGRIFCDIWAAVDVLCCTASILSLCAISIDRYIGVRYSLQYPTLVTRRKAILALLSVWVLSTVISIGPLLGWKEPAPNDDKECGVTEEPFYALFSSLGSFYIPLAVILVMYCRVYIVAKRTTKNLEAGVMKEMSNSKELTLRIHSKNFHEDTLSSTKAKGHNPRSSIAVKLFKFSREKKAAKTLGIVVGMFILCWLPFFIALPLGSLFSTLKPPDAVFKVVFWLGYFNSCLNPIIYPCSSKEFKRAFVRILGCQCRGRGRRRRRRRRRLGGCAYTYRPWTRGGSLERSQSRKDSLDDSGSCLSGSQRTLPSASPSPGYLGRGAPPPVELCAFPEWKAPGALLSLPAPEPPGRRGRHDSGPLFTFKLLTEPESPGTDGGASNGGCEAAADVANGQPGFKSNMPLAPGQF

[5] = target: T5, Steroid 5-alpha-reductase (Rattus norvegicus, UniProt P24008+P31214); experiment: Inhibition of rat 5-alpha reductase isozyme.; type: protein assay
T5 sequence (P24008 whole entry): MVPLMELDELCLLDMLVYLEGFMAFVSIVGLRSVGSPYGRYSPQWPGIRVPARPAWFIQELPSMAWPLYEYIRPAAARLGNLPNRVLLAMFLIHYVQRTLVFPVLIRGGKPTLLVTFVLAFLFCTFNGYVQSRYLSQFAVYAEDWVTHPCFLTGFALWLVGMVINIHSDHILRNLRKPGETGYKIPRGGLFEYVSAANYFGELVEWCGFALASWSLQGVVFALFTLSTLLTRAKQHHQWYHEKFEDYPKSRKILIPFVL
T5 sequence (P31214 whole entry): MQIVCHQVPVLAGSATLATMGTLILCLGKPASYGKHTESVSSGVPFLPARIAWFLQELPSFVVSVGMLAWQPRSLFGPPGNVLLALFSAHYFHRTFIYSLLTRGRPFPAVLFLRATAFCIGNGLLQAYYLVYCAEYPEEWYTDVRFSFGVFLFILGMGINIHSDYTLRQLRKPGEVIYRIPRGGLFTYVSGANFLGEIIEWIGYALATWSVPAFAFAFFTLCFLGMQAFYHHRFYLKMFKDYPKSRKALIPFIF

[6] = Apparent binding affinity on human 5-alpha reductase isozyme
[7] = target: T6, Alpha-1D adrenergic receptor (Homo sapiens, UniProt P25100); experiment: Binding affinity was tested on human Alpha-1D adrenergic receptor
T6 sequence (P25100 whole entry): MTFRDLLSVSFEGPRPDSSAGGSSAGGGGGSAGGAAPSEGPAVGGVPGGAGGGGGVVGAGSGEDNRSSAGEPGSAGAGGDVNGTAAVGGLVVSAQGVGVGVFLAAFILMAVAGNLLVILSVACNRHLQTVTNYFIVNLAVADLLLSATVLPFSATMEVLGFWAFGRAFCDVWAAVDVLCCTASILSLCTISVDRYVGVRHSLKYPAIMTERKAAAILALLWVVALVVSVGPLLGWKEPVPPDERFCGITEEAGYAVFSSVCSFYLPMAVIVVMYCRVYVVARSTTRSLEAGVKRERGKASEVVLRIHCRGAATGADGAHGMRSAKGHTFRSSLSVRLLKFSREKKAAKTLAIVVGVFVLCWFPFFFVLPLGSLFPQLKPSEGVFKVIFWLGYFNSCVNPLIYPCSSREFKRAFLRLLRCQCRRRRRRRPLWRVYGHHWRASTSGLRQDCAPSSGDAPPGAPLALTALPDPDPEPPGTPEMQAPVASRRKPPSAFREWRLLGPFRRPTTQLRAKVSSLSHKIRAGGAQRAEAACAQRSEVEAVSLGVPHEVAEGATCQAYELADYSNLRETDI

SMILES | pIC50 [2] | pIC50 [3] | also measured
CC(=O)CC(=O)NCCCN1CCC(c2ccccc2)(c2ccccc2)CC1 |  |  | pKi [1]: 7.00
C[C@]12C=CC(=O)NC1CCC1C2CC[C@@]2(C)C1CC[C@@H]2C(=O)Nc1ccccc1C(F)(F)F (some centres undefined) | > 10.00 | 8.25 | 
CCN1C(=O)CC[C@]2(C)C3CC[C@@]4(C)C(CC[C@@H]4C(C)CCCC(C)C)C3[C@@H](C)CC12 (some centres undefined) | 5.86 | 8.48 | 
COc1cc2nc(N(C)CCCNC(=O)C3CCCO3)nc(N)c2cc1OC (centres undefined) [ALFUZOSIN] |  |  | pKi [4]: 8.00
CCOc1ccccc1OCCN[C@H](C)Cc1ccc(OC)c(S(N)(=O)=O)c1 (stereo in doubt; form 2) [TAMSULOSIN] |  |  | pKi [4]: 8.90
CC(C)Cc1ccc([C@H](C)Oc2ccc(C(=O)c3cn(CCCC(=O)O)c4ccccc34)cc2)cc1 | 8.40 | 7.40 | IC50 [5]: 1 nM
CC(C)N(C(=O)[C@H]1CCC2C3CCC4C=C([N+](=O)[O-])C=CC4(C)C3CC[C@@]21C)C(C)C (single isomer, unassigned) |  |  | pKi [6]: < 5.30
CO/C(O)=C1\C(C)=NC(C)=C(C(=O)NCCCN2CCC(c3ccccc3)(c3ccccc3)CC2)C1c1ccc(OC(C)C)cc1 (centres undefined) |  |  | pKi [7]: 6.05; pKi [1]: 7.16; pKi [4]: 6.76
CC(C)CCCC(C)[C@H]1CCC2C3CC=C4NC(=O)CC[C@]4(C)C3CC[C@@]21C (some centres undefined) |  | 7.72 | 
C[C@]12C=CC(=O)NC1CCC1C2CC[C@@]2(C)C1CC[C@@H]2C(=O)Nc1cccc(-c2ccccc2)c1 (some centres undefined) | > 10.00 | 7.85 | 
C[C@]12C=CC(=O)NC1CCC1C2CC[C@@]2(C)C1CC[C@@H]2C(=O)Nc1cc(C(F)(F)F)ccc1C(F)(F)F (some centres undefined) | 9.30 | 8.62 | 
COc1c(C)c(C)c(O)c(C)c1CN(C)CCOc1cc(C)c(O)cc1C(C)C |  |  | pKi [7]: 8.90; pKi [1]: 9.40; pKi [4]: 8.90
O=C(O)c1ccc2c(c1)CCc1cc(Br)ccc1-2 | 5.00 | 7.59 | 
Cc1c(O[C@@H](C)c2ccc(CC(C)C)cc2)ccc(C(=O)Nc2ccccc2OCCCC(=O)O)c1C | 6.59 |  | 
CO/C(O)=C1\C(C)=NC(C)=C(C(=O)NCCCCN2CCC(c3ccccc3)(c3ccccc3)CC2)C1c1ccc([N+](=O)[O-])cc1 (centres undefined) |  |  | pKi [7]: 6.84; pKi [1]: 8.23; pKi [4]: 7.19
CC(C)CCCC(C)[C@H]1CCC2C3C(CC[C@@]21C)[C@@]1(C)CCC(=O)N(C)C1C[C@@H]3c1ccccc1 (some centres undefined) | 6.37 | 6.87 | 
CC(C)CCCC(C)[C@H]1CCC2C3CCC4N(C)C(=O)CC[C@]4(C)C3CC[C@@]21C (some centres undefined) | 6.66 | 8.77 | 
CC(C)Cc1ccc(C(Nc2cccc(C(=O)c3cn(CCCC(=O)O)c4ccccc34)c2)c2ccc(CC(C)C)cc2)cc1 | 7.44 | 7.42 | IC50 [5]: 128 nM
CC(C)Cc1ccc([C@]2(C)Oc3ccc(C(=O)c4cn(CCCC(=O)O)c5ccccc45)cc3O2)cc1 | 7.64 | 7.60 | IC50 [5]: 9 nM
COc1cc2nc(N3CCN(C(=O)c4ccco4)[C@H]4CCCC[C@H]43)nc(N)c2cc1OC [CYCLAZOSIN] |  |  | pKi [1]: 7.60
